# Data reported in US20220184056A1, “USE OF KDM5A GENE AND ATRX GENE” (SHENZHEN CHIPSCREEN BIOSCIENCES, CO., LTD., priority 2019, published 2022).
# Values joined by “and” are separate entries in the source; they are usually repeats but may differ in a detail not shown here. Equal entries are not always repeated.
# Columns and labels:
# [1] = system: relapsed and refractory small cell lung cancer; test: Phase Ib clinical trial of Chiauranib monotherapy for relapsed and refractory small cell lung cancer, with ctDNA biomarker study (KDM5A, ATRX); type: in vivo, human
# Method: According to the present invention, a phase Ib clinical trial of using Chiauranib capsules to treat relapsed and refractory small cell lung cancer was carried out, and a concomitant study of efficacy-related biomarkers for 548 tumor-related genes was carried out by detecting and analyzing plasma free tumor DNA (ctDNA). Blood samples were taken from all patients before enrollment, and gene sequences of tumor-related genes were detected, including gene mutations and copy number abnormalities. According to detection results, genes with mutation rates of more than 0.4% were all selected, and progression free survival (PFS) and objective response rates (ORR) of patients were taken as efficacy indicators to analyze the correlation between tumor-related gene abnormalities and the efficacy of Chiauranib.
# Test drug: Chiauranib capsules, with specifications of 5 mg and 25 mg. They were manufactured by Shenzhen Chipscreen Biosciences Co., Ltd.
# Dosing regimen: the Chiauranib capsules were administered QD at 50 mg/day (not adjusted according to the body weight or the body surface area). The capsules were taken on an empty stomach every morning with water, and the whole capsules were swallowed completely. Continuous administration for 28 days was one treatment cycle, and there was no interval during each treatment cycle.
# Number of cases: 25 patients were enrolled.
# The test subjects took 50 mg of Chiauranib capsules orally once daily, every 28 days was taken as one treatment cycle, and there was no withdrawal interval during the treatment cycles. All subjects received continuous treatment throughout the trial period until any one of the following occurred (whichever occurred first): progressed disease, intolerable toxicity, death, withdrawal of the informed consent, or loss to follow-up.
# Efficacy evaluation: according to the RECIST 1.1 criteria, evaluations were respectively performed in the baseline period and at the end of the 4th week after treatment, and repeated every 8 weeks until a progressive disease occurred. Tumor imageological examinations included CT or MRI of neck, chest, whole abdomen, and pelvic cavity. Other site examinations should be performed as necessary according to clinical indications. The same technologies and methods should be used for baseline of lesions and subsequent evaluation and measurement.
# 10 mL of peripheral blood was taken before the subjects took Chiauranib for the first time and when a progressive disease occurred, gene sequences of plasma free tumor DNA (ctDNA) and leukocyte extracted DNA (control) were detected, a total of 548 tumor-related genes were included, and detection results included gene mutations and copy number abnormalities, as well as analysis of tumor mutation burden (TMB).
# Plasma free tumor DNA (ctDNA) of the evaluated patients was detected and analyzed, and a concomitant study of efficacy-related biomarkers for the 548 tumor-related genes was carried out. According to detection results, genes with mutation rates of more than 0.4% were all selected, and progression free survival (PFS) and objective response (PR) of the patients were taken as efficacy indicators to analyze the correlation between tumor-related gene abnormalities and the efficacy of Chiauranib.
# SCLC = conditions: topotecan combined optimal supportive treatment vs optimal supportive treatment alone; cited from earlier work
SMILES,efficacy of monotherapy in the treatment of small cell lung cancer ([1]; 50 mg QD oral),"benefit rate ([1]; 20 evaluated patients, 50 mg QD oral) [%]","ORR ([1]; 20 evaluated patients, 50 mg QD oral, RECIST 1.1) [%]","Non-response (SD + PD), number of patients ([1]; ATRX mutation (6 patients)) [patients]","Non-response (SD + PD), share of patients ([1]; ATRX mutation (6 patients)) [%]","Objective response (PR), number of patients ([1]; ATRX mutation (6 patients)) [patients]","Objective response (PR), share of patients ([1]; ATRX mutation (6 patients)) [%]","Non-response (SD + PD), number of patients ([1]; ATRX wild type (14 patients)) [patients]","Non-response (SD + PD), share of patients ([1]; ATRX wild type (14 patients)) [%]","Objective response (PR), number of patients ([1]; ATRX wild type (14 patients)) [patients]","Objective response (PR), share of patients ([1]; ATRX wild type (14 patients)) [%]","PFS Hazard ratio (HR) ([1]; KDM5A wild type vs mutation, P value 0.0087)",patients with best efficacy evaluation being partial response (PR) ([1]; among 20 evaluated patients) [patients],"PFS, Median (95% CI) ([1]; patients with KDM5A gene mutation (n = 8))","PFS, Median (95% CI) ([1]; patients with wild-type KDM5A gene (n = 12))","Overall survival, quality of life, improvement of symptoms (SCLC)"
"COc1ccc2c(Oc3ccc4c(C(=O)Nc5ccccc5N)cccc4c3)ccnc2c1 [Chiauranib, N-(2-aminophenyl)-6-(7-methoxyquinolin-4-oxy)-1-naphthamide]",effective,60,20,2,33.3,4,66.7,14,100.0,0,0,"16.5 (2.03, 133.37)",4,"145 days and 145.0 (23.0, 145.0) days","27.5 days and 27.5 (16.0, 61.0) days",
CC[C@@]1(O)C(=O)OCc2c1cc1n(c2=O)Cc2cc3c(CN(C)C)c(O)ccc3nc2-1 [topotecan],,,,,,,,,,,,,,,,significantly better
